Assay results taken from ChEMBL document CHEMBL1201862, “PubChem BioAssay data set” (2004).
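1) Cells in 96-well plates. 2) Compound, 48 h, 5 concentrations. 3) Linear interpolation between surrounding doses. 4) Unreached endpoint = highest concentration. The concentration for 50% growth inhibition is given as GI50.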 Activity calls are given as the source filed them. Rule as the data show it: active = GI50 up to about 1.1 µM and inactive = higher.

Experiments:
Test in all cases: DTP human tumour cell line panel, 48 h
RPMI-8226 = test system: RPMI-8226
UACC-257 = test system: UACC-257
SW-620 = test system: SW-620
SK-MEL-5 = test system: SK-MEL-5
SF-539 = test system: SF-539
KM12 = test system: KM12
CCRF-CEM = test system: CCRF-CEM
SNB-75 = test system: SNB-75
UO-31 = test system: UO-31
MOLT-4 = test system: MOLT-4
MCF7 = test system: MCF7
MDA-N = test system: MDA-N
A549 = test system: A549
SR = test system: SR
A498 = test system: A498
SK-OV-3 = test system: SK-OV-3
786-0 = test system: 786-0
SF-295 = test system: SF-295

Measured: GI50

CN(/N=C/c1ccc(Cl)cc1)C1=NCCCCN1
inactive: RPMI-8226 > 100 µM | UACC-257 > 100 µM | SW-620 > 100 µM | SK-MEL-5 53.2 µM | SF-539 > 100 µM | KM12 50.5 µM | CCRF-CEM 38.1 µM | SNB-75 68.7 µM | UO-31 > 100 µM | MOLT-4 26.7 µM | MCF7 > 100 µM | MDA-N > 100 µM | A549 93.8 µM | SR > 100 µM | A498 56.9 µM | SK-OV-3 > 100 µM | 786-0 99.8 µM | SF-295 > 100 µM

C[N+](C)([O-])C12CC3CC(CC(C3)C1)C2
inactive: RPMI-8226 29.9 µM | UACC-257 39.2 µM | SW-620 41.8 µM | SK-MEL-5 27.2 µM | SF-539 23.4 µM | KM12 26.8 µM | CCRF-CEM 34.1 µM | SNB-75 28.2 µM | UO-31 13.9 µM | MOLT-4 29.3 µM | MCF7 33.1 µM | MDA-N 31.8 µM | A549 25.8 µM | SR 41.3 µM | A498 22 µM | SK-OV-3 61.9 µM | 786-0 25.5 µM | SF-295 30 µM

COc1cc(S(=O)(=O)Nc2ccc(-c3csc(N4C(=O)CSC4c4cccs4)n3)cc2)ccc1Cl (stereo not given)
inactive: RPMI-8226 8.67 µM | UACC-257 20.3 µM | SW-620 24.7 µM | SK-MEL-5 64 µM | SF-539 25.7 µM | KM12 20.4 µM | CCRF-CEM 4.98 µM | SNB-75 20.2 µM | UO-31 57.3 µM | MOLT-4 8.67 µM | MCF7 16.4 µM | MDA-N 29.4 µM | A549 86.9 µM | SR 29.7 µM | A498 43.6 µM | SK-OV-3 56.4 µM | 786-0 28.4 µM | SF-295 > 100 µM

CCOC(=O)c1nc2ccc(C(F)(F)F)cc2nc1Nc1cc(OC)c(OC)c(OC)c1
inactive: RPMI-8226 > 100 µM | UACC-257 > 100 µM | SW-620 > 100 µM | SK-MEL-5 > 100 µM | SF-539 > 100 µM | KM12 > 100 µM | CCRF-CEM > 100 µM | SNB-75 > 100 µM | UO-31 > 100 µM | MOLT-4 > 100 µM | MCF7 > 100 µM | MDA-N > 100 µM | A549 > 100 µM | SR > 100 µM | A498 > 100 µM | SK-OV-3 > 100 µM | 786-0 > 100 µM | SF-295 > 100 µM

COc1cc(C2CC(C)(O)Oc3cc4c(cc32)OCO4)cc(OC)c1OC (stereo not given)
active: RPMI-8226 0.325 µM | UACC-257 0.822 µM | SW-620 0.33 µM | SK-MEL-5 0.208 µM | SF-539 0.195 µM | KM12 0.191 µM | CCRF-CEM 0.34 µM | MOLT-4 0.451 µM | MCF7 0.321 µM | MDA-N 0.166 µM | SR 0.374 µM | 786-0 0.375 µM | SF-295 0.184 µM
inactive: A549 2.49 µM | A498 4.6 µM

COc1ccccc1/C=C/c1ccnc2ccccc12
inactive: RPMI-8226 8.49 µM | UACC-257 16 µM | SW-620 13.8 µM | SK-MEL-5 13.5 µM | SF-539 14.6 µM | KM12 12.3 µM | CCRF-CEM 14.2 µM | SNB-75 3.37 µM | MOLT-4 7.87 µM | MCF7 4.25 µM | MDA-N 11.6 µM | A549 14.5 µM | SR 12.8 µM | A498 15.4 µM | SK-OV-3 16 µM | 786-0 14.3 µM | SF-295 14.2 µM

Cc1ccc(S(=O)(=O)/N=C(\NN)Nc2ccc(Cl)cc2)cc1
inactive: RPMI-8226 > 100 µM | UACC-257 > 100 µM | SW-620 > 100 µM | SK-MEL-5 > 100 µM | SF-539 35.2 µM | KM12 > 100 µM | CCRF-CEM > 100 µM | SNB-75 37.8 µM | UO-31 > 100 µM | MOLT-4 > 100 µM | MCF7 > 100 µM | MDA-N > 100 µM | A549 > 100 µM | SR 83.9 µM | A498 > 100 µM | SK-OV-3 > 100 µM | 786-0 > 100 µM | SF-295 > 100 µM

O=C(O)CN1CCN2CCCCCN(CC1)CCN(CC(=O)O)CC2
inactive: RPMI-8226 > 100 µM | UACC-257 > 100 µM | SW-620 83.9 µM | SK-MEL-5 > 100 µM | SF-539 > 100 µM | KM12 84.7 µM | CCRF-CEM > 100 µM | SNB-75 11.4 µM | UO-31 > 100 µM | MCF7 > 100 µM | MDA-N > 100 µM | A549 > 100 µM | SR 45.1 µM | A498 > 100 µM | SK-OV-3 > 100 µM | 786-0 > 100 µM | SF-295 > 100 µM

O=C(O)C/C=C/CC(=O)O
inactive: RPMI-8226 > 100 µM | UACC-257 > 100 µM | SW-620 > 100 µM | SK-MEL-5 > 100 µM | KM12 > 100 µM | CCRF-CEM > 100 µM | SNB-75 > 100 µM | UO-31 > 100 µM | MOLT-4 > 100 µM | MCF7 > 100 µM | MDA-N > 100 µM | A549 > 100 µM | SR > 100 µM | A498 > 100 µM | SK-OV-3 > 100 µM | 786-0 > 100 µM | SF-295 > 100 µM

CC(C)C[C@H](NC(=O)[C@H](Cc1cccc2ccccc12)NS(=O)(=O)c1cccc2cccnc12)B(O)O
active: RPMI-8226 < 0.01 µM | UACC-257 0.0103 µM | SW-620 < 0.0176 µM | SK-MEL-5 < 0.01 µM | SF-539 < 0.01 µM | KM12 0.0432 µM | CCRF-CEM < 0.01 µM | UO-31 0.279 µM | MOLT-4 < 0.01 µM | MCF7 < 0.0151 µM | MDA-N < 0.01 µM | A549 0.0435 µM | SR < 0.0167 µM | A498 < 0.0147 µM | SK-OV-3 0.359 µM | 786-0 0.0222 µM

NC(=S)NNCC(=O)CC(O)(C(F)(F)F)C(F)(F)Cl (stereo not given)
inactive: RPMI-8226 > 100 µM | UACC-257 > 100 µM | SW-620 > 100 µM | SK-MEL-5 > 100 µM | SF-539 > 100 µM | KM12 > 100 µM | CCRF-CEM > 100 µM | SNB-75 29.6 µM | UO-31 > 100 µM | MOLT-4 > 100 µM | MCF7 > 100 µM | MDA-N > 100 µM | A549 > 100 µM | SR > 100 µM | A498 > 100 µM | SK-OV-3 > 100 µM | 786-0 > 100 µM | SF-295 > 100 µM

CC(=O)O[C@H]1C(=O)[C@@]2(C)[C@H]([C@H](OC(=O)c3ccccc3)[C@]3(O)C[C@H](OC(=O)[C@H](O)[C@@H](NC(=O)c4ccc(N(C)C)cc4)c4ccccc4)C(C)=C1C3(C)C)[C@]1(OC(C)=O)CO[C@@H]1C[C@@H]2O
active: RPMI-8226 < 0.005 µM | SW-620 < 0.005 µM | SK-MEL-5 < 0.005 µM | SF-539 < 0.005 µM | KM12 < 0.005 µM | CCRF-CEM < 0.005 µM | SNB-75 < 0.005 µM | MOLT-4 0.00631 µM | MCF7 < 0.005 µM | MDA-N < 0.005 µM | A549 < 0.005 µM | SR < 0.005 µM | A498 0.0428 µM | SK-OV-3 0.0262 µM | 786-0 < 0.005 µM | SF-295 0.0119 µM
inactive: UO-31 1.54 µM

CC(C)=CCC/C(C)=C/CC/C(C)=C/CC/C(C=O)=C/CC/C(C)=C\CC/C(C)=C/CC/C(C)=C/CC/C(C)=C/CC1=CC(=O)C=CC1=O
inactive: RPMI-8226 37.4 µM | UACC-257 48 µM | SW-620 > 100 µM | SK-MEL-5 56 µM | KM12 81.3 µM | CCRF-CEM 72.8 µM | SNB-75 38.1 µM | UO-31 > 100 µM | MOLT-4 55.5 µM | MDA-N > 100 µM | A549 > 100 µM | SR > 100 µM | A498 > 100 µM | SK-OV-3 > 100 µM | 786-0 67 µM | SF-295 91.4 µM
active: MCF7 0.365 µM

CCN(CC)CCN1C=CC(C)C(C(=O)O)C1C(N)=O (stereo not given)
inactive: RPMI-8226 > 100 µM | UACC-257 > 100 µM | SW-620 > 100 µM | SK-MEL-5 > 100 µM | KM12 > 100 µM | CCRF-CEM > 100 µM | SNB-75 > 100 µM | UO-31 > 100 µM | MOLT-4 > 100 µM | MCF7 > 100 µM | MDA-N > 100 µM | A549 > 100 µM | SR > 100 µM | A498 > 100 µM | SK-OV-3 > 100 µM | 786-0 > 100 µM | SF-295 > 100 µM

CCCCCc1cc2cc3c(c(O)c2c(=O)[nH]1)C1(CCC3)C(=O)c2c(O)c3c(c(O)c2C1=O)C(=O)C(OC)=CC3=O (stereo not given)
active: RPMI-8226 0.386 µM | UACC-257 0.783 µM | SW-620 0.681 µM | SK-MEL-5 0.515 µM | CCRF-CEM 0.586 µM | SNB-75 0.906 µM | UO-31 0.579 µM | MOLT-4 0.582 µM | MCF7 0.317 µM | A549 1 µM | SR 0.573 µM | 786-0 0.746 µM
inactive: KM12 1.85 µM | MDA-N 1.41 µM | A498 2.18 µM | SK-OV-3 2.24 µM | SF-295 1.91 µM

N=C(CCl)NC1CN2CCC1CC2 (stereo not given)
inactive: RPMI-8226 > 100 µM | UACC-257 > 100 µM | SW-620 68.7 µM | SK-MEL-5 > 100 µM | SF-539 60.5 µM | KM12 > 100 µM | CCRF-CEM 18.6 µM | SNB-75 > 100 µM | MOLT-4 39.7 µM | MCF7 42.3 µM | MDA-N > 100 µM | A549 > 100 µM | SR 32.7 µM | A498 > 100 µM | SK-OV-3 > 100 µM | 786-0 97.5 µM | SF-295 > 100 µM
